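Test compounds were applied to cells in 96-well plates for 48 hours at 5 doses. Abbreviation: GI50, concentration required for 50% inhibition of growth.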 Activity calls are given as the source filed them. Cut-off read from the data, not from the text of the source: active = GI50 up to about 1.1 µM and inactive = higher.
Legend:
Test in all cases: DTP human tumour cell line panel, 48 h
A498 = system: A498
CAKI-1 = system: CAKI-1
CCRF-CEM = system: CCRF-CEM
HCT-15 = system: HCT-15
K562 = system: K562
MDA-MB-231 = system: MDA-MB-231
MDA-MB-435 = system: MDA-MB-435
MOLT-4 = system: MOLT-4
NCI-H460 = system: NCI-H460
NCI/ADR-RES = system: NCI/ADR-RES
OVCAR-8 = system: OVCAR-8
PC-3 = system: PC-3
RPMI-8226 = system: RPMI-8226
SF-295 = system: SF-295
SK-MEL-28 = system: SK-MEL-28
SNB-19 = system: SNB-19
SR = system: SR
T47D = system: T47D
TK-10 = system: TK-10
UACC-257 = system: UACC-257

Structure (SMILES) | GI50 (A498) | GI50 (CAKI-1) | GI50 (CCRF-CEM) | GI50 (HCT-15) [µM] | GI50 (K562) | GI50 (MDA-MB-231) | GI50 (MDA-MB-435) | GI50 (MOLT-4) | GI50 (NCI-H460) | GI50 (NCI/ADR-RES) | GI50 (OVCAR-8) | GI50 (PC-3) | GI50 (RPMI-8226) | GI50 (SF-295) | GI50 (SK-MEL-28) | GI50 (SNB-19) | GI50 (SR) | GI50 (T47D) | GI50 (TK-10) | GI50 (UACC-257)
O=C(CC1C=Cc2ccccc2N1C(=O)c1ccccc1)c1ccccc1 (configuration not stated) | 28.9 µM (inactive) | 34.2 µM (inactive) | 36.1 µM (inactive) | 26.2 | 19.9 µM (inactive) | 21.9 µM (inactive) | 20.4 µM (inactive) | 11.7 µM (inactive) | 22.8 µM (inactive) | 25.8 µM (inactive) | 29.2 µM (inactive) | 26.5 µM (inactive) | 10.9 µM (inactive) | 27 µM (inactive) | 30.1 µM (inactive) | 27.7 µM (inactive) | 11.9 µM (inactive) | 44.2 µM (inactive) | 36.3 µM (inactive) | 20.5 µM (inactive)
O=S(=O)(/N=C(\NO)Nc1ccc(Cl)cc1)C1CC=C(c2ccon2)S1 (configuration not stated) | 7.24 µM (inactive) | 2.39 µM (inactive) | 12.2 µM (inactive) | 15.5 | 7.1 µM (inactive) | 18.4 µM (inactive) | 8.91 µM (inactive) | 3.34 µM (inactive) | 16 µM (inactive) | 22.1 µM (inactive) | 8.77 µM (inactive) | 14.8 µM (inactive) | 6.07 µM (inactive) | 40.7 µM (inactive) | 23.5 µM (inactive) | 30.1 µM (inactive) | 2.3 µM (inactive) | 12.5 µM (inactive) | 14.4 µM (inactive) | 12.5 µM (inactive)
CNC(=O)N1CN(c2ccccc2)C2(CCN(CCCC3(c4ccc(F)cc4)OCCO3)CC2)C1=O | > 100 µM (inactive) | > 100 µM (inactive) | > 100 µM (inactive) | > 100 | > 100 µM (inactive) | > 100 µM (inactive) | > 100 µM (inactive) | > 100 µM (inactive) | > 100 µM (inactive) | > 100 µM (inactive) | – | > 100 µM (inactive) | > 100 µM (inactive) | > 100 µM (inactive) | > 100 µM (inactive) | > 100 µM (inactive) | > 100 µM (inactive) | > 100 µM (inactive) | > 100 µM (inactive) | –
Cc1cc(C)nc(NS(=O)(=O)c2ccc(Nc3c4ccccc4nc4c(C(=O)NCCCN(CCO)CCO)cccc34)cc2)n1 | 54.3 µM (inactive) | 56.2 µM (inactive) | 7.66 µM (inactive) | 49.2 | 10.6 µM (inactive) | 27.4 µM (inactive) | 16 µM (inactive) | 3.33 µM (inactive) | 7.48 µM (inactive) | > 100 µM (inactive) | 17.3 µM (inactive) | 14.9 µM (inactive) | 9.38 µM (inactive) | 27.4 µM (inactive) | 14.2 µM (inactive) | 9.29 µM (inactive) | 9.75 µM (inactive) | 22.5 µM (inactive) | > 100 µM (inactive) | > 100 µM (inactive)
C/C(C=O)=N\Nc1cc(C)c2ccccc2n1 | 15.2 µM (inactive) | 16.9 µM (inactive) | 12 µM (inactive) | 10 | 13.4 µM (inactive) | 15.1 µM (inactive) | 16 µM (inactive) | 16.2 µM (inactive) | – | 15.7 µM (inactive) | 17.5 µM (inactive) | 13.7 µM (inactive) | 11.9 µM (inactive) | 15.2 µM (inactive) | 16.3 µM (inactive) | 19.1 µM (inactive) | 1.7 µM (inactive) | 15.8 µM (inactive) | 15.5 µM (inactive) | 17.6 µM (inactive)
C(/Cc1ccc2c(c1)OCO2)=N\N=C1NCCCN1 | 19.5 µM (inactive) | – | 48.5 µM (inactive) | > 100 | 35.1 µM (inactive) | > 100 µM (inactive) | > 100 µM (inactive) | 24.7 µM (inactive) | 19 µM (inactive) | 84.1 µM (inactive) | > 100 µM (inactive) | 36.3 µM (inactive) | 56.1 µM (inactive) | 38.2 µM (inactive) | > 100 µM (inactive) | > 100 µM (inactive) | 22.5 µM (inactive) | 19.5 µM (inactive) | > 100 µM (inactive) | > 100 µM (inactive)
CCOC(=O)c1nc2ccc(C(F)(F)F)cc2nc1NCc1ccc(OC)c(OC)c1 | 58.2 µM (inactive) | > 100 µM (inactive) | 65.6 µM (inactive) | 69 | 49.5 µM (inactive) | > 100 µM (inactive) | 50.1 µM (inactive) | 34.9 µM (inactive) | 35.6 µM (inactive) | 37 µM (inactive) | 80.4 µM (inactive) | 35.5 µM (inactive) | 86.1 µM (inactive) | 47.6 µM (inactive) | – | 94.2 µM (inactive) | 29.6 µM (inactive) | 48.1 µM (inactive) | > 100 µM (inactive) | 61.4 µM (inactive)
COc1cc2c(c(OC)c1)C(=O)O[C@H](C)CCCC/C=C/C2 | 39.7 µM (inactive) | 10.4 µM (inactive) | 2.26 µM (inactive) | 10.2 | 6.24 µM (inactive) | 10.9 µM (inactive) | 4.73 µM (inactive) | 7.31 µM (inactive) | 11.1 µM (inactive) | 29.2 µM (inactive) | 33.3 µM (inactive) | 7.78 µM (inactive) | 9.12 µM (inactive) | 13.6 µM (inactive) | 23.2 µM (inactive) | 16.2 µM (inactive) | > 53.5 µM (inactive) | 9.16 µM (inactive) | 15.8 µM (inactive) | 10.9 µM (inactive)
CCCCc1ccc(Nc2nc3c(ncn3C3CC(O)C(CN=[N+]=[N-])O3)c(=O)[nH]2)cc1 (configuration not stated) | > 100 µM (inactive) | > 100 µM (inactive) | > 100 µM (inactive) | > 100 | > 100 µM (inactive) | > 100 µM (inactive) | > 100 µM (inactive) | > 100 µM (inactive) | > 100 µM (inactive) | > 100 µM (inactive) | > 100 µM (inactive) | > 100 µM (inactive) | > 100 µM (inactive) | > 100 µM (inactive) | > 100 µM (inactive) | > 100 µM (inactive) | > 100 µM (inactive) | 54.7 µM (inactive) | – | > 100 µM (inactive)
Cc1oc2ccccc2c(=O)c1Cn1nnc2ccccc21 | 62.1 µM (inactive) | – | 95.1 µM (inactive) | 96.2 | 56.6 µM (inactive) | 91.4 µM (inactive) | 41.3 µM (inactive) | 37.2 µM (inactive) | 43.8 µM (inactive) | 60.7 µM (inactive) | 43.3 µM (inactive) | > 100 µM (inactive) | 35.7 µM (inactive) | > 100 µM (inactive) | 74 µM (inactive) | > 100 µM (inactive) | 35.9 µM (inactive) | 10.6 µM (inactive) | > 100 µM (inactive) | 26.4 µM (inactive)
O=C1C(O)=C(CC=C(Cl)Cl)C(=O)c2ccccc21 | 30 µM (inactive) | 23.1 µM (inactive) | 2.82 µM (inactive) | 0.757 | 1.82 µM (inactive) | 15.1 µM (inactive) | 11 µM (inactive) | 1.46 µM (inactive) | 1.45 µM (inactive) | 19.1 µM (inactive) | 5.48 µM (inactive) | 10.9 µM (inactive) | 2.28 µM (inactive) | – | 23.4 µM (inactive) | 11 µM (inactive) | 1.08 µM (active) | 38.5 µM (inactive) | 38.9 µM (inactive) | 15.1 µM (inactive)
O=c1[nH]c2ccc(CC(=S)N3CCN(c4ccccc4)CC3)cc2o1 | > 30 µM (inactive) | 97.9 µM (inactive) | 71.3 µM (inactive) | 66.2 | 53.2 µM (inactive) | > 100 µM (inactive) | 54.5 µM (inactive) | > 80.7 µM (inactive) | > 100 µM (inactive) | > 44.5 µM (inactive) | > 79.1 µM (inactive) | > 100 µM (inactive) | > 66.5 µM (inactive) | > 89.3 µM (inactive) | > 100 µM (inactive) | > 100 µM (inactive) | > 58.3 µM (inactive) | > 100 µM (inactive) | > 100 µM (inactive) | > 100 µM (inactive)
COc1ccc2c(c1)-c1c(c3cc(OC)ccc3n1CCN1CCOCC1)CC2 | 46.7 µM (inactive) | 44.2 µM (inactive) | 11.5 µM (inactive) | 14.5 | 13.2 µM (inactive) | 34.4 µM (inactive) | 49.1 µM (inactive) | 11.9 µM (inactive) | 22.8 µM (inactive) | 20.7 µM (inactive) | 28.6 µM (inactive) | 24.2 µM (inactive) | 20.5 µM (inactive) | 18.9 µM (inactive) | 57.1 µM (inactive) | – | 3.94 µM (inactive) | 44.4 µM (inactive) | 32.7 µM (inactive) | 33.4 µM (inactive)
CC(C)(N)C(=O)N[C@@H]1C(=O)N2[C@@H]1SC(C)(C)[C@@H]2C(=O)O | > 100 µM (inactive) | > 100 µM (inactive) | – | > 100 | > 100 µM (inactive) | > 100 µM (inactive) | > 100 µM (inactive) | – | > 100 µM (inactive) | > 100 µM (inactive) | > 100 µM (inactive) | > 100 µM (inactive) | > 100 µM (inactive) | > 100 µM (inactive) | > 100 µM (inactive) | > 100 µM (inactive) | > 100 µM (inactive) | > 100 µM (inactive) | > 100 µM (inactive) | > 100 µM (inactive)
Cc1ccc(Nc2nnc3n2S(=O)(=O)c2cc(C)c(Cl)cc2S3)cc1 | 15.4 µM (inactive) | 23 µM (inactive) | – | 5.05 | 3.4 µM (inactive) | 13.4 µM (inactive) | 3.64 µM (inactive) | 4.25 µM (inactive) | 7.23 µM (inactive) | 16.1 µM (inactive) | 12.6 µM (inactive) | 4.39 µM (inactive) | 18.4 µM (inactive) | 3.22 µM (inactive) | 19.6 µM (inactive) | – | 2.4 µM (inactive) | 17.7 µM (inactive) | 35.2 µM (inactive) | 34.5 µM (inactive)

— ChEMBL document CHEMBL1201862, “PubChem BioAssay data set” (2004)
